Source: publication PMC2562352 (Journal of medicinal chemistry, 2008)

What was measured:
[1] = tested on: yellow fever virus; format: cell-based, yellow fever virus (YFV 17D)
[2] = tested on: BHK cells; test: Cell viability assay; conditions: CC50 compared with M02

| SMILES | antiviral activity vs. yellow fever virus (in words) [1] | antiviral activity relative to parent compound M02 [1] | cytotoxicity relative to parent compound M02 (times less) [2] |
| --- | --- | --- | --- |
| Clc1ccc(-c2nc(CSc3cccc(Cl)c3)cs2)cc1 [Compound 30] | lose antiviral activity |  |  |
| COC(=O)c1sc(N(Cc2ccc(C(C)=O)cc2)Cc2ccc(C(C)=O)cc2)nc1C [Compound 18, Methyl 2-(Bis(4-acetylbenzyl)amino)-4-methylthiazole-5-carboxylate] | active |  |  |
| Nc1ccc(SCc2csc(-c3cccnc3)n2)cc1 [Compound 28] | lose antiviral activity |  |  |
| C/C(=N\NC(=N)N)c1ccc(NC(=O)Nc2nc(C)c(C(=O)NCc3ccc(Cl)cc3Cl)s2)cc1 [Compound 2, (E)-2-(3-(4-(1-(2-Carbamimidoylhydrazono)-ethyl)-phenyl)-ureido)-N-(2,4-dichlorobenzyl)-4-methylthiazole-5-carboxamide] | active |  |  |
| CC(=O)c1ccc(NC(=O)Nc2nc(C)c(C(=O)NCc3ccc(Cl)cc3Cl)s2)cc1 [Compound 7, 2-(3-(4-Acetylphenyl)-ureido)-N-(2,4-dichlorobenzyl)-4-methylthiazole-5-carboxamide] | inactive |  |  |
| CC(=O)c1ccc(NC(=O)Nc2nc(C)c(C(=O)O)s2)cc1 [Compound 4, 2-[3-(4-Acetylphenyl)-ureido]-4-methylthiazole-5-carboxylic Acid] | lost its activity |  |  |
| Cc1nc(-n2nc(-c3ccccc3)cc2-c2ccccc2)sc1C(=O)NCc1ccc(Cl)c(Cl)c1 [Compound 11, N-(3,4-Dichlorobenzyl)-2-(3,5-diphenyl-1H-pyrazol-1-yl)-4-methylthiazole-5-carboxamide] |  | 10 times | 2.7 times |
| CC(=O)c1ccc(NC(=O)Nc2nc(C)c(C(=O)NCc3ccc(Cl)c(Cl)c3)s2)cc1 [Compound 8, 2-(3-(4-Acetylphenyl)-ureido)-N-(3,4-dichlorobenzyl)-4-methylthiazole-5-carboxamide] | active |  |  |
| COC(=O)c1sc(-c2ccc(Cl)cc2)nc1C [Compound 32, 2-(4-Chlorophenyl)-4-methyl-thiazole-5-carboxylic Acid Methyl Ester] | inactive |  |  |
| C/C(=N\NC(N)=O)c1ccc(NC(=O)Nc2nc(C)c(C(=O)NCc3ccc(Cl)cc3Cl)s2)cc1 [Compound 1, (E)-2-(3-(4-(1-(2-Carbamoylhydrazono)-ethyl)-phenyl)-ureido)-N-(2,4-dichlorobenzyl)-4-methylthiazole-5-carboxamide] | inactive |  |  |
| Nc1ccccc1SCc1csc(-c2cccnc2)n1 [Compound 29] | lose antiviral activity |  |  |
